For 54 sequences, target mRNA inhibition results are on record in the OligoGym collection.

The target in this data set is SNHG14. The note with it: ASO.
Setting [1] is: Mouse Primary Neuronal Cell, 0.005 µM.

After the bases stand the sugars from the 5' end (letter, count) and the backbone: PS all phosphorothioate, else s phosphorothioate and o phosphodiester by linkage. Methylation of C is not given here. l = locked nucleic acid (LNA); d = 2'-deoxy (DNA)

Consider “CCTTCCCTTTGATAACA (sugars l2 d12 l3, PS)”, for which the target mRNA inhibition is 43% (Human Neuronal Cell, 0.2 µM) and 62% (Human Neuronal Cell, 1 µM).

With “ACTGTTTATACCCTTTCC (sugars l1 d11 l1 d3 l2, PS)”, where the note is “Human Neuronal Cell, 7.5 µM”, the target mRNA inhibition was determined as 56%.

Take “TCTTTCCATTTATTTCCATT (sugars l2 d13 l1 d2 l2, PS)”: the target mRNA inhibition (Human Neuronal Cell, 7.5 µM) was determined as 42%.

Regarding “AGATCATTCTCAACAATTA (sugars ldlddldddddddllldll, PS)”, the target mRNA inhibition (Human Neuronal Cell, 7.5 µM) is 50%.

Consider CTCTTTGTCAAATACT (sugars l4 d10 l2, PS), for which the target mRNA inhibition runs as follows: (Human Neuronal Cell, 0.2 µM) 33%; (Human Neuronal Cell, 1 µM) 13%.

Regarding “TGTTTATACCCTTTCCAA (sugars l1 d1 l2 d12 l2, PS)”, under “Human Neuronal Cell, 7.5 µM”, the target mRNA inhibition stood at 63%.

In the case of ATCCTGTTAATACCAT (sugars l2 d10 l4, PS), the target mRNA inhibition (Human Neuronal Cell, 0.2 µM) is 45% and the target mRNA inhibition (Human Neuronal Cell, 1 µM) turned out to be 39%.

Consider “CTATTCAATAAACTAAACA (sugars l4 d13 l2, PS)”, for which the target mRNA inhibition was -6% (Human Neuronal Cell, 0.2 µM) and -9% (Human Neuronal Cell, 1 µM).

For the sequence “ACACATTATATTTAAACTA (sugars l3 d13 l3, PS)”, the target mRNA inhibition (Human Neuronal Cell, 0.2 µM) was 8% and the target mRNA inhibition (Human Neuronal Cell, 1 µM) is -2%.

TCCTCTGCTTATAACT (sugars l3 d11 l2, PS): the target mRNA inhibition reads like this: (Human Neuronal Cell, 0.2 µM) 51%; (Human Neuronal Cell, 1 µM) 77%.

TTTACATTGACACCTA (sugars l2 d10 l4, PS): the target mRNA inhibition by setting is: (Human Neuronal Cell, 0.2 µM) 20%; (Human Neuronal Cell, 1 µM) 31%.

Consider “ATATTGATTCAATTCCC (sugars l1 d3 l1 d8 l4, PS)”, for which the target mRNA inhibition (Human Neuronal Cell, 7.5 µM) stood at 67%.

In the case of “ACTGTTTATACCCTTTC (sugars l1 d2 l1 d9 l4, PS)”, the target mRNA inhibition (Human Neuronal Cell, 7.5 µM) worked out at 45%.

With “GACCTCAATACTCTACT (sugars l3 d11 l3, PS)”, the target mRNA inhibition reads like this: (Human Neuronal Cell, 0.2 µM) 49%; (Human Neuronal Cell, 1 µM) 58%.

With “CTCATCCCTCCAAGAAA (sugars l4 d11 l2, PS)”, the target mRNA inhibition by setting is: (Human Neuronal Cell, 0.2 µM) -3%; (Human Neuronal Cell, 1 µM) -15%; (Human Neuronal Cell, 5 µM) -9%; under setting [1], 90.9%.

On to “AGTTCTACTATACTTTCC (sugars l1 d15 l2, PS)”, for which, for the setting “Human Neuronal Cell, 7.5 µM”, the target mRNA inhibition stood at 11%.

In the case of “TATTCTCAATTGCACTT (sugars l4 d11 l2, PS)”, the target mRNA inhibition runs as follows: (Human Neuronal Cell, 0.2 µM) 46%; (Human Neuronal Cell, 1 µM) 61%.

As for “TTTATACCTTTCTTTAAC (sugars l2 d12 l4, PS)”, the target mRNA inhibition turned out to be 4% (Human Neuronal Cell, 0.2 µM) and 21% (Human Neuronal Cell, 1 µM).

With “AGTTCTACTATACTTTC (sugars l3 d11 l3, PS)”, where the note is “Human Neuronal Cell, 7.5 µM”, the target mRNA inhibition worked out at 57%.

“TATTGATTCAATTCCCT (sugars l1 d2 l1 d10 l3, PS)”: the target mRNA inhibition (Human Neuronal Cell, 7.5 µM) turned out to be 72%.

Turning to CCTTAATCTGTATCAC (sugars l3 d10 l3, PS), the target mRNA inhibition (Human Neuronal Cell, 0.2 µM) amounted to 38% and the target mRNA inhibition (Human Neuronal Cell, 1 µM) worked out at 52%.

With “AGCAACATTATTAACCACC (sugars lddddlddddddlldddll, PS)”, the target mRNA inhibition (Human Neuronal Cell, 7.5 µM) stood at 45%.

Consider “GCACATTCTTTCTATACC (sugars ldldlldddddddlddll, PS)”, for which the target mRNA inhibition (Human Neuronal Cell, 7.5 µM) is 54%.

As for ATATAAGCTTACCTCA (sugars l4 d10 l2, PS), the target mRNA inhibition was 56% (Human Neuronal Cell, 0.2 µM) and 68% (Human Neuronal Cell, 1 µM).

For the sequence “TCCAACATAGATCCTCT (sugars l2 d11 l4, PS)”, the target mRNA inhibition was 45% (Human Neuronal Cell, 0.2 µM) and 55% (Human Neuronal Cell, 1 µM).

Take “TCCATTTATTTCCATTTAT (sugars llddlddddddddldldll, PS)”: the target mRNA inhibition (Human Neuronal Cell, 7.5 µM) amounted to 40%.

Consider “ATTGATTCAATTCCCTT (sugars ldddldddddddlldll, PS)”, for which the target mRNA inhibition (Human Neuronal Cell, 7.5 µM) was 57%.

For the sequence “ATCTTTCCATTTATTTCCAT (sugars lddlddddddddddddldll, PS)”, where the note is “Human Neuronal Cell, 7.5 µM”, the target mRNA inhibition came out at 40%.

On to “TTCTACTATACTTTCCTCT (sugars ldlddddddddddddldll, PS)”, for which, for the setting “Human Neuronal Cell, 7.5 µM”, the target mRNA inhibition was 63%.

With “ATTTACACTTAATTATACTT (sugars llddlllddddddlddllll, PS)”, for the setting “Human Neuronal Cell, 7.5 µM”, the target mRNA inhibition was determined as 38%.

Regarding “CAAAGATCATTCTCAACA (sugars l1 d1 l2 d8 l6, PS)”, the target mRNA inhibition (Human Neuronal Cell, 7.5 µM) was 58%.

For the sequence CCTAAGCTCCATATTT (sugars l4 d10 l2, PS), the target mRNA inhibition by setting is: (Human Neuronal Cell, 0.2 µM) 39%; (Human Neuronal Cell, 1 µM) 45%.

Take “TTATAGCCATTCTATCT (sugars llddlddddddldldll, PS)”: under “Human Neuronal Cell, 7.5 µM”, the target mRNA inhibition amounted to 5%.

With “TTTGACATTCCATCTCC (sugars l2 d12 l3, PS)”, the target mRNA inhibition reads like this: (Human Neuronal Cell, 0.2 µM) 38%; (Human Neuronal Cell, 1 µM) 55%.

“GCACATTCTTTCTATACC (sugars l1 d15 l2, PS)”: for the setting “Human Neuronal Cell, 7.5 µM”, the target mRNA inhibition was found to be 25%.

With CCCTCAAAGTAATTTC (sugars l4 d10 l2, PS), the target mRNA inhibition (Human Neuronal Cell, 0.2 µM) turned out to be 21% and the target mRNA inhibition (Human Neuronal Cell, 1 µM) amounted to 20%.

In the case of “TTATAGCCATTCTATCT (sugars l2 d1 l1 d11 l2, PS)”, the target mRNA inhibition (Human Neuronal Cell, 7.5 µM) is 62%.

For CCTCTGACAACCATTA (sugars l4 d10 l2, PS), the target mRNA inhibition (Human Neuronal Cell, 0.2 µM) turned out to be 30% and the target mRNA inhibition (Human Neuronal Cell, 1 µM) came out at 31%.

For the sequence “GACCACACTTTCTACCA (sugars l2 d13 l2, PS)”, the target mRNA inhibition reads like this: (Human Neuronal Cell, 0.2 µM) 27%; (Human Neuronal Cell, 1 µM) 48%.

For the sequence “GATCATTCTCAACAATTA (sugars ldllldddddddldldll, PS)”, the target mRNA inhibition (Human Neuronal Cell, 7.5 µM) worked out at 35%.

Consider “TTATAGCCATTCTATCT (sugars l2 d1 l2 d10 l2, PS)”, for which the target mRNA inhibition (Human Neuronal Cell, 7.5 µM) worked out at 64%.

As to TATTTGTCACCAAACC (sugars l3 d10 l3, PS), the target mRNA inhibition is 23% (Human Neuronal Cell, 0.2 µM) and -2% (Human Neuronal Cell, 1 µM).

Regarding “ATCTTTCCATTTATTTCCA (sugars ldddlddddddddldddll, PS)”, the target mRNA inhibition (Human Neuronal Cell, 7.5 µM) worked out at 42%.

“ATCATTCTCAACAATTAA (sugars l4 d8 l6, PS)”: the target mRNA inhibition (Human Neuronal Cell, 7.5 µM) turned out to be 44%.

For AAGAAACACCCTTCCA (sugars l2 d10 l4, PS), the target mRNA inhibition is 40% (Human Neuronal Cell, 0.2 µM) and 54% (Human Neuronal Cell, 1 µM).

In the case of “CTTTCCATTTATTTCCATT (sugars llddldddddddddlddll, PS)”, the target mRNA inhibition (Human Neuronal Cell, 7.5 µM) is 61%.

In the case of GTTTATACCCTTTCCA (sugars l2 d11 l3, PS), the target mRNA inhibition is 49% (Human Neuronal Cell, 0.2 µM) and 58% (Human Neuronal Cell, 1 µM).

With “TTATAGCCATTCTATCT (sugars l3 d1 l1 d10 l2, PS)”, for the setting “Human Neuronal Cell, 7.5 µM”, the target mRNA inhibition worked out at 65%.

“GCATTAGGCACATTACAT (sugars l3 d12 l3, PS)”: the target mRNA inhibition by setting is: (Human Neuronal Cell, 0.2 µM) -8%; (Human Neuronal Cell, 1 µM) 2%; (Human Neuronal Cell, 5 µM) 15%.

Take “CTACATCTCATACTTGC (sugars l3 d11 l3, PS)”: the target mRNA inhibition (Human Neuronal Cell, 0.2 µM) was -4%; the target mRNA inhibition (Human Neuronal Cell, 1 µM) is -27%; the target mRNA inhibition (Human Neuronal Cell, 5 µM) came out at 1%; the target mRNA inhibition under setting [1] was 94.6%.

As to CTAATCCTATTCCAAC (sugars l2 d10 l4, PS), the target mRNA inhibition (Human Neuronal Cell, 0.2 µM) amounted to 33% and the target mRNA inhibition (Human Neuronal Cell, 1 µM) came to 49%.

As to TTGTCTCTAATCCTAT (sugars l2 d10 l4, PS), the target mRNA inhibition (Human Neuronal Cell, 0.2 µM) came to 38% and the target mRNA inhibition (Human Neuronal Cell, 1 µM) worked out at 54%.

Regarding “CTGTATACACCATCCCA (sugars l1 d3 l1 d10 l2, PS)”, under “Human Neuronal Cell, 7.5 µM”, the target mRNA inhibition was determined as 65%.

“TTCAGCTTTTAACCAGAGT (sugars l2 d14 l3, PS)”: the target mRNA inhibition (Human Neuronal Cell, 7.5 µM) was determined as 73%.
